The source of these data is patent US20190151340A1, “POLYMERIC NAN[…]” (priority 2017, published 2019).

Molecules are shown by their SMILES.

Data set [1] has as its system relapsed and refractory multiple myeloma. The following applies: Richardson et al. 2003, Phase 2; cited from earlier work.
Data set [2] concerns human tumor xenograft models. The note with it: Albanell and Adams 2002; cited from earlier work.
The nature of data set [3]: Comparative toxicity in wild-type mice (body weight, lethality). The class given is in vivo, CD1 wild type mice. Here is the method: The effect of nanoparticles in mitigating the toxicity of bortezomib was examined in wild-type mice. Different doses of bortezomib alone (1.5, 3, 6, 9 and 12 mg/kg) or bortezomib-nanoparticles (NP) (0.9, 1.8, 3.6, 5.4 and 7.2 mg/kg) were injected into CD1 wild type. Three mice were used in each group of bortezomib alone and bortezomib-NP groups, body weights, food and water uptake were measured every day for 22 days.

In the case of `CC(C)C[C@H](NC(=O)[C@H](Cc1ccccc1)NC(=O)c1cnccn1)B(O)O` [bortezomib, N-2-pyrazinecarbonyl-L-phenylalanine-L-leucineboronic acid], the effectiveness in patients entry in data set [1] was “effectiveness in treating relapsed and refractory multiple myeloma”. In data set [2], the antitumor activity entry is recorded as “significant antitumor activity”. Further, the results for the survival result in data set [3] (6 mg/kg dose) and in data set [3] (9 mg/kg dose) were “two” and “died after Day 1”, respectively.
